From PMC3994986 (Pigment cell & melanoma research, 2012)
Ends that are not written are not given here.

Key:
MAPK signalling = settings: ref Busca et al., 2000; cited from earlier work
[1] = tested on: pERK (HEK293 cells expressing MC1R); assay type: cell-based, human; settings: PKA inhibitor H89; 300 nM HBD3 (Figure 2C and D); NDP-MSH (Figure S2D)
NR4A receptor family = settings: ref Smith et al., 2008; cited from earlier work
[2] = tested on: MC1R variants in HBL human melanoma cells; settings: ref Herraiz et al., 2009, 2011; cited from earlier work
MC1R variant receptors = settings: ref Beaumont et al., 2005, 2007; cited from earlier work
[3] = tested on: MC1R variants D84E, V92M, R142H, R151C, R160W, D294H; assay type: cell-based, human
dog Mc1r = settings: ref Candille et al., 2007; cited from earlier work
[4] = tested on: mouse melan-a melanocytes; settings: concentrations up to 1uM, ref Candille et al., 2007; cited from earlier work
mouse Mc1r = settings: ref Candille et al., 2007, cited from earlier work
human MC1R [5] = target: T1, human MC1R (Homo sapiens, UniProt Q01726); experiment: cAMP accumulation in HEK293 cells stably expressing human MC1R wild type; assay type: cell-based; settings: for agonist character for MC1R-mediated cAMP signalling: HEK cells expressing human MC1R, relative to NDP-MSH
MC1R [6] = settings: ref Candille et al., 2007; cited from earlier work
human MC1R [7] = target: T1, human MC1R; assay type: cell-based
HEK293 control cells = experiment: pERK response in control HEK293 cells; assay type: cell-based, human; settings: Figure S2B and E; ligand not given
MC1R [8] = experiment: Inhibition of α-MSH-induced cAMP; assay type: cell-based; settings: Figure S1H

T1 sequence (Q01726 whole entry): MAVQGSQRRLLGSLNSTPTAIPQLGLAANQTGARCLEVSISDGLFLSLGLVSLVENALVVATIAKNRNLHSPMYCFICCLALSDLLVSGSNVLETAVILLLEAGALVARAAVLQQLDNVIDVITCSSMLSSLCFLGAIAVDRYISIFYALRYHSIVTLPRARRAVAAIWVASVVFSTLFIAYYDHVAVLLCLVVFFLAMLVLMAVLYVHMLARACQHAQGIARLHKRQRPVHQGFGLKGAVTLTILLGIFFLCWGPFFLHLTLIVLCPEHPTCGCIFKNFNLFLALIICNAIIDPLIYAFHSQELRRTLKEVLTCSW

Substance: alpha-melanocyte stimulating hormone (SYSMEHFRWGKPV; ends and bridges not checked; UniProt P01189 138-150, looked up) [α-MSH]
- induction of MAPK signalling (MAPK signalling): induce MAPK signalling

Substance: NDP- melanocyte stimulating hormone [NDP-MSH]
- PKA dependence of MAPK activation [1]: This was also the case for NDP-MSH activation of MAPK
- induction of the NR4A receptor family (NR4A receptor family): PKC and p38 are involved in the NDP-MSH induction of the NR4A receptor family
- MAPK activation by variant receptors versus wild-type MC1R [2]: able to activate MAPK as efficiently as wild-type MC1R
- cAMP response of MC1R variant receptors (MC1R variant receptors): impaired cAMP responses
- induction of pERK over basal levels by variant receptors ([3]; 10 nM NDP-MSH, 5 min, 2–3 independent experiments, Figure 3A, S3A): all variant receptors show an induction of pERK over the basal levels
- average pERK increase over basal levels, combined variant receptor cells ([3]; 10 nM NDP-MSH, 5 min, mean, n ≥ 3, normalized to GAPDH): 2.7 fold
- pERK of combined variant receptor clones compared to control cells ([3]; 10 nM NDP-MSH, 5 min, n ≥ 3, t-test): significant increase compared to the levels of pERK in control cells

Substance: β-defensin 103 [CBD103]
- binding to dog Mc1r (dog Mc1r): able to bind to dog and mouse Mc1r
- cAMP induction in mouse melanocytes [4]: did not induce cAMP
- Ki (mouse Mc1r; mouse Mc1r): 15.1 nM
- binding to mouse Mc1r (mouse Mc1r): able to bind to dog and mouse Mc1r

Substance: human β-defensin 3 (GIINTLQKYYCRVRGGRCAVLSCLPKEEQIGKCSTRGRKCCRRKK; ends and bridges not checked; cysteine pairing not given here; UniProt P81534 23-67, looked up) [HBD3]
- cAMP induction compared to 100 nM ASIP-YY (human MC1R [5]; 300 nM HBD3, Figure S1E and F): significant increase compared to 100 nM ASIP-YY
- agonist character for MC1R-mediated cAMP signalling (human MC1R [5]): partial agonist, with both agonistic and antagonistic effects on cAMP signalling
- agonist character for MC1R-mediated cAMP signalling (human MC1R [5]; listed as β-defensin 3): weak partial agonist for cAMP signalling
- binding to MC1R (MC1R [6]): found to bind with high affinity to the melanocortin-1 receptor
- displacement of NDP-MSH in ligand-binding assays (MC1R [6]): displace NDP-MSH in ligand-binding assays
- competitive inhibition of NDP-MSH relative to ASIP-YY (cAMP) (human MC1R [7]): weaker competitive inhibitor to NDP-MSH
- inhibition of 1 nM NDP-MSH-induced cAMP (human MC1R [7]; 100 or 300 nM HBD3, two MC1R-expressing HEK clones (WTe, WT#21), 5–10 min, n = 3): able to inhibit the level of 1 nM NDP-MSH-induced cAMP
- effect of increased concentration on level of inhibition (human MC1R [7]; 100 vs 300 nM HBD3, 1 nM NDP-MSH): did not significantly increase the level of inhibition
- pERK induction in control cells (HEK293 control cells): no induction observed in control cells
- activation of ERK by variants ([3]; 300 nM HBD3, 5 min, exception of R151C and D84E, 2–3 independent experiments, Figure 3A, S3B): With the exception of R151C and D84E, HBD3 stimulation produced a similar activation of ERK by variants
- competitive antagonism of α-MSH induction of cAMP (MC1R [8]): able to act as a competitive antagonist for α-MSH induction of cAMP
